Measured values taken from paper PMC6889535, “Validation of Plasmodium falciparum dUTPase as the target of 5′-tritylated deoxyuridine analogues with anti-malarial activity” (Malaria Journal, 2019).

Columns and labels:
HsdUTPase = molecular target: T1, HsdUTPase (Homo sapiens, UniProt P33316); assay: Inhibition of human dUTPase (Ki); format: biochemical; details: average of three independent experiments ± standard errors
T1 construct: made in house
T1 sequence (P33316 1-164 isoform P33316-2): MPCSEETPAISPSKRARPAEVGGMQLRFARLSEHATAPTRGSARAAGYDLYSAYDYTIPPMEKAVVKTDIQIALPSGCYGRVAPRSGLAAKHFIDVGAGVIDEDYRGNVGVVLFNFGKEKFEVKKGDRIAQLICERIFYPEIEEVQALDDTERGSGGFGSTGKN
Text: Table 1 Ki values for Plasmodium and human dUTPases and IC50s for intraerythrocytic stages of Plasmodium falciparum | column: Ki HsdUTPase

PfdUTPase = molecular target: T2, PfdUTPase (Plasmodium falciparum, UniProt Q8II92); assay: Inhibition of Plasmodium dUTPase (Ki); format: biochemical; details: for Ki: average of three independent experiments ± standard errors
T2 construct: made in house
T2 sequence (Q8II92 1-173): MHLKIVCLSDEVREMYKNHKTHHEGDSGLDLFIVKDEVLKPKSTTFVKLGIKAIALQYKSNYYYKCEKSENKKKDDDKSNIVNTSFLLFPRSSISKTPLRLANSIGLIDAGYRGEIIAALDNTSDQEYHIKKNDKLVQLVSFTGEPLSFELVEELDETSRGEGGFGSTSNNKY

[1] = tested on: Plasmodium falciparum 3D7; assay: In vitro inhibitory activity against erythrocytic stages of P. falciparum (3H-hypoxanthine incorporation assay); format: cell-based; details: intraerythrocytic stages of Plasmodium falciparum; average of three independent experiments ± standard errors; read-out: IC50 Pf3D7
Description: (§1) In vitro inhibitory activity against the erythrocytic stages of P. falciparum of overexpressing mutants was determined by using the SYBR green assay and the ^3H-hypoxanthine incorporation assay was used for IC50 determination as previously described. Plasmodium falciparum 3D7 was cultured using standard methods, and synchronized using 5% sorbitol as previously described. Compounds were dissolved in DMSO and added at different concentrations (8–500 ng/ml) to 48 h post-synchronization parasites. […] Chloroquine dissolved in water was used as standard drug. Experiments were carried out at least twice independently and the different concentrations were tested in duplicate. IC50 values were calculated using a four-parameter logistic regression model using data obtained from two or three independent experiments as indicated.

[2] = tested on: Plasmodium falciparum lines overexpressing PfdUTPase (PfdUTPase OE); assay: IC50 shift in P. falciparum line overexpressing PfdUTPase (SYBR green assay); format: cell-based; details: PfdUTPase overexpressing line vs parental line 3D7
Description: as §1
(§2) Subsequently, the IC50 for each cell line with each compound and the fold change relative to the 3D7 IC50 was calculated (Fig. 3a). […] The IC50 for chloroquine as a reference compound was also determined in overexpressing mutants.

[3] = tested on: Plasmodium falciparum lines overexpressing human dUTPase (HsdUTPase OE); assay: IC50 shift in P. falciparum line overexpressing human dUTPase (SYBR green assay); format: cell-based; details: HsdUTPase overexpressing line vs parental line 3D7
Description: as §1, §2

[4] = tested on: dTTP and dUTP pools in Plasmodium cultures; assay: Intracellular dTTP and dUTP levels by modified DNA polymerase assay; format: cell-based, Plasmodium falciparum; details: schizont stage, 20 h of treatment, 1× and 3× the IC50; effect at high concentrations
Description: The effect of different dUTPase inhibitors on dUTP and dTTP levels from P. falciparum cells was measured using a modified DNA polymerase assay. The template sequence employed was the oligonucleotide 5′-[…]-3′ and as primer sequence the oligonucleotide 5′-CCGCCTCCACCGCC-3′ was used. Saponin-isolated parasite pellets (5 × 10^8 parasites per sample) were repeatedly washed in PBS and frozen at − 80 °C. Frozen pellets were extracted with 200 μl of cold methanol/water (1:1, v/v) vigorously by vortexing, freeze-thawed twice and centrifuged. Supernatants were collected and pellets were re-extracted with the same volume of methanol/water as previously mentioned and newly centrifuged. The combined supernatants were dried under vacuum. The residues were dissolved in 40 μl either of dUTPase buffer (34 mM Tris–HCl pH 7.8, 5 mM MgCl2) or dUTPase buffer plus 30 ng of HsdUTPase and incubated for 20 min at 37 °C. To stop the reaction, 60 μl of 100% methanol were added and the samples were incubated for 1 h at − 20 °C, followed by centrifugation for 20 min at 16,000×g. The supernatants were again dried under vacuum and the DNA polymerase assay used was modified from that of Horowitz et al.. The DNA polymerase I buffer contained 34 mM Tris–HCl pH 7.8, and 50 mM MgCl2. After incubation with DNA polymerase I, 30 μl of each sample were incubated for 30 min at 4 °C with 470 μl of DNA polymerase I buffer containing 10% (v/v) trichloroacetic acid to precipitate the DNA. The solution was blotted onto a glass microfibre filter GF/C (Whatman) and each filter was washed under vacuum with 30 ml of a solution of 5% (v/v) trichloroacetic acid and 3 ml of ethanol, dried and the radioactivity was counted using a LS 6500 Multi-Purpose Scintillation Counter (Beckman Coulter).
The levels of intracellular dTTP and dUTP were measured using the DNA polymerase based assay in Plasmodium cultures incubated with compounds 3 and 4. Parasites for dUTP and dTTP measurements were obtained from highly synchronized cultures in schizont stage after 20 h of treatment with concentrations of compound that corresponded with 1× and 3× the IC50 concentration.

Compound | Ki (HsdUTPase) [nM] | Ki (PfdUTPase) [nM] | IC50 [1] [nM] | Activity against the enzyme relative to compound 3 (PfdUTPase; PfdUTPase, compared with compound 3) | Fold change in IC50 relative to the 3D7 IC50 [2] | Fold change in IC50 relative to the 3D7 IC50 [3] | dTTP pool [4] | dUTP pool [4]
3- N-(4-(carboethoxy)butylurea)-5-tritylamino-2,3-dideoxy-β-D-xylofuranosyluracil [Compound 1] | > 100000 | 4730 ± 160 | 40 ± 10 | – | – | – | – | –
CCOC(=O)c1ccc(NC(=O)NCC(CCn2ccc(=O)[nH]c2=O)CNC(c2ccccc2)(c2ccccc2)c2ccccc2)cc1 (centres unmarked) [Compound 4, Ethyl 4-(3-(4-(2,4-dioxo-3,4-dihydropyrimin-1(2H)-yl)-2-((tritylamino)methyl)butyl)uredio)benzoate] | > 100000 | 610 ± 70 | 150 ± 30 | eightfold less active | 4 fold | 2.5 fold | significant decrease | increase
CCOC(=O)CCCNC(=O)NCC(CCn1ccc(=O)[nH]c1=O)CNC(c1ccccc1)(c1ccccc1)c1ccccc1 (centres unmarked) [Compound 2, Ethyl 4-(3-(4-(2,4-dioxo-3,4-dihydropyrimin-1(2H)-yl)-2-((tritylamino)methyl)butyl)uredio)butanoate] | 12200 ± 6910 | 560 ± 80 | 60 ± 10 | – | – | – | – | –
CCN(CC)CCCC(C)Nc1ccnc2cc(Cl)ccc12 (centres unmarked) [chloroquine, Chloroquine, reference compound] | – | – | – | – | No significant effects | No significant effects | – | –
O=C(Nc1ccc(C(=O)O)cc1)O[C@H]1C[C@H](n2ccc(=O)[nH]c2=O)O[C@@H]1CNC(c1ccccc1)(c1ccccc1)c1ccccc1 [Compound 3, 3’-O-(4-(carboxy)phenylurethane)-5’-N-tritylamino-2’,5’-dideoxyuridine] | > 100000 | 79 ± 22 | 120 ± 50 | – | 3.8 fold | 2.3 fold | significant decrease | increase
